From patent US20060171935A1, “Protecting cell therapy for neurological disorders including Parkinson's disease” (priority 2005, published 2006)
Read-outs that look alike come from different tables or passages of the source. d = 2'-deoxy (DNA); r = 2'-OH (RNA)

How the values were obtained:
[1] = tested on: primary cortical cultures; experiment: Parkin siRNA in kainate-treated primary cortical cultures, Western blot; type: cell-based, mice; conditions: 25 nM siRNA
Description: (§1) Cerebellar granule neurons from P6 mice were purified and transfected essentially as described (Scheiffele et al., Neuroligin expressed in nonneuronal cells triggers presynaptic development in contacting axons. Cell, 101:657-69, 2000). Dissociated cortical neurons from E16.5 mice were prepared and cultured as described (Scheiffele et al., Neuroligin expressed in nonneuronal cells triggers presynaptic development in contacting axons. Cell, 101:657-69, 2000). Primary midbrain cultures were prepared from E13.5 mouse embryos, as described (Hynes et al., Induction of midbrain dopaminergic neurons by Sonic hedgehog. Neuron, 15:35-44, 1995). Cells were treated for 24 h with or without kainate (250 or 500 μM as indicated; Sigma) or MPP^+ (1 or 10 μM as indicated; Sigma), stained for 20 min with 0.5 μg/ml Hoechst 33342 (Sigma), and visualized by fluorescence microscopy. For granule cell assays, at least 100 cells in two 20× fields were scored in duplicate for GFP and/or Hoechst signal. For immunohistochemistry, cell cultures were washed twice with PBS, and fixed for 20 min with 4% (w/v) paraformaldehyde. Cells were blocked for 1 h, at room temperature, with 3% (v/v) goat serum in PBS, and then incubated overnight, at 4° C., with specific antibodies, as indicated. Cells were washed, incubated for 1 h at room temperature with appropriately-labeled secondary antibodies, and visualized by fluorescence microscopy. For midbrain culture experiments, DAT-specific immunoreactivity (pixels), and cytoplasmic parkin and cyclin E immunoreactivity (mean pixel density), were quantified in triplicate, across nine fields of view, at 20× using Image software (Scion).
SiRNAs were synthesized by Dharmacon Research, Inc., and duplexes were formed as per the manufacturer's instructions (parkin siRNA sequence: 5′ […] […]dTdT 3′; DAT siRNA sequence: 5′ […]dTdT 3′; SERT siRNA sequence: 5′[…]dTdT 3′). […]

[2] = tested on: primary culture midbrain dopamine neurons; experiment: Parkin siRNA in primary midbrain dopamine neuron cultures; type: cell-based, mice
Description: as §1
SiRNAs were synthesized by Dharmacon Research, Inc., and duplexes were formed as per the manufacturer's instructions (parkin siRNA sequence: 5′ […] […]dTdT 3′; DAT siRNA sequence: 5′ […]dTdT 3′; SERT siRNA sequence: 5′[…]dTdT 3′). Cortical cultures were transfected using Lipofectamine 2000 reagent (Life Technologies); primary midbrain cultures were transfected using Transmessenger (Qiagen), as described (Krichevsky and Kosik, RNAi functions in cultured mammalian neurons. Proc. Natl. Acad. Sci. USA, 99:11926-929, 2002).
Embryonic day 13.5 (E13.5) primary culture midbrain dopamine neurons, identified by immunohistochemical staining for the dopamine transporter (DAT) (Nirenberg et al., The dopamine transporter is localized to dendritic and axonal plasma membranes of nigrostriatal dopaminergic neurons. J. Neurosci., 16:436-47, 1996), were transfected with parkin siRNA (FIG. 7, panels F-J and P-T) or control siRNA (FIG. 7, panels A-E and K-O), and subsequently exposed to kainate, as above.

[3] = tested on: DJ-1 deficient ES cells; type: cell-based
Description: DJ-1 has been hypothesized to function in the cellular response to oxidative stress. To investigate the role of DJ-1 in the oxidative stress response in vivo, DJ-1-deficient homozygous mutant (‘knockout’) cells and DJ-1 heterozygote (‘control’) ES cell clones were analyzed for cell viability in the context of increasing concentrations of H2O2. Heterozygous cells were used as controls because the ‘knockout’ subclones were derived from these. Cell viability was initially determined by MTT assay in triplicate (Fezoui et al. 2000). […] The increase in AV-positive cells implicated an apoptotic mechanism of cell death (FIG. 14F).
(§2) In Vivo Assays. ES cells plated in 96-well format (2.3×10^4 cells/well) were treated for 15 hours with H2O2 in ES media deficient in β-mercaptoethanol (Abeliovich et al. 2000). Cell viability (as a percent of untreated control) was determined by MTT assay in triplicate (Fezoui et al. 2000). Annexin V/Propidium Iodide (Molecular probes) staining was performed per the manufacturer's instructions. For dihydrorhodamine-123 staining (DHR, Molecular probes) (Walrand et al. 2003), cells were preincubated for 30 min with DHR (5 μM), washed with PBS, then treated with H2O2 in ES media deficient in β-mercaptoethanol for 15 min at 37° C. The FACS analysis was performed using a FACSTAR sorter (Becton Dickinson). Dopamine uptake assay was performed essentially as described (Farrer et al. 1998). Reported values represent specific uptake from which non-specific uptake, determined in the presence of mazindol, was subtracted, and normalized for protein content (BCA kit, Pierce).

[4] = target: T1, citrate synthase (CS) (Sus scrofa, UniProt P00889); experiment: Suppression of heat-induced aggregation of citrate synthase (chaperone assay); type: biochemical; conditions: 0.8 μM CS, 43° C.
T1 construct: purchased Sigma
T1 sequence (P00889 28-464): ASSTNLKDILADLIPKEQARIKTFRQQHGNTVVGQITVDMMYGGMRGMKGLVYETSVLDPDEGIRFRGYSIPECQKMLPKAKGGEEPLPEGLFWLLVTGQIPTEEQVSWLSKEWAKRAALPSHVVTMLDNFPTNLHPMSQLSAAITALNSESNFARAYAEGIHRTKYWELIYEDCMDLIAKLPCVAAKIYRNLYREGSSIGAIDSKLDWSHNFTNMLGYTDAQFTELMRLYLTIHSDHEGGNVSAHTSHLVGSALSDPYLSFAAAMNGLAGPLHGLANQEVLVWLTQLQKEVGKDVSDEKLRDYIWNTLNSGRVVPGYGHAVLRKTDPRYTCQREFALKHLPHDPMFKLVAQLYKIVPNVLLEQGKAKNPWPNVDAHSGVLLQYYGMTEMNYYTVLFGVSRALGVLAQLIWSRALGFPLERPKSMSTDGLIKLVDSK
Description: To test the redox regulation of DJ-1, the inventors assayed chaperone activity in the CS aggregation assay in the presence or absence of the reducing agent DTT. […] (FIG. 22D). […] To further test whether redox regulation might govern DJ-1 chaperone activity, reactivation studies using reduced DJ-1 were performed. DTT-reduced DJ-1 was incubated with H2O2 (10 mM in aggregation buffer for 10 min at 4° C. followed by dialysis against aggregation buffer for 2 h), and subsequently chaperone activity was measured in the CS thermal aggregation assay. […] This was not an indirect effect of residual H2O2 on CS aggregation, as H2O2 treatment of CS increased aggregation (unpublished data).
CS aggregation was performed in 40 mM HEPES (pH 7.8), 20 mM potassium hydroxinde, 50 mM potassium chloride, and 10 mM ammonium sulfate, and monitored in a thermostat-controlled fluorescence spectrophotometer with excitation and emission wavelengths at 500 nm and slit widths at 2.5 nm. Insulin aggregation was performed as described (Giasson et al. 2000). CS, insulin, RNase A, and GST were obtained from Sigma; human Hsp27 was obtained from Stressgen.

[5] = tested on: DJ-1-deficient ES cells; experiment: Rescue of DJ-1-deficient ES cells from H2O2, MTT viability; type: cell-based, murine; conditions: transient transfection, 10 μM H2O2 for 15 h
Description: (A) DJ-1 cysteine-to-alanine mutants C106A, C53A, and a triple mutant that harbors mutations at all three cysteines in DJ-1 (C106A/C53A/C46A), as well as L166P, were tested for in vitro chaperone activity by CS aggregation suppression assay. (B) Self-association of DJ-1 cysteine mutants. Murine neuroblastoma CAD cells were transiently cotransfected with Flag-tagged human DJ-1 vectors (either WT or mutant) along with WT YFP-tagged human DJ-1. Lysates were immunoprecipitated with anti-Flag antibodies and probed by Western blotting with an antibody specific for human DJ-1. […] Lysates represent 20% of the input for the immunoprecipitate; Flag-DJ-1 migrates at 22 kDa, and YFP-DJ-1 migrates at 50 kDa. (C) DJ-1-deficient ES cells were transiently transfected with vector alone, WT DJ-1, or DJ-1 cysteine mutants, and exposed to 10 μM H2O2 for 15 h followed by MTT assay. The viability of the cells in the absence of drug treatment was not altered by the expression of WT or mutant DJ-1). Data are shown as the mean±SEM and were analyzed by ANOVA with Fisher's post-hoc test. *p<0.05.
To confirm that altered sensitivity to oxidative stress is a consequence of the loss of DJ-1, ‘rescue’ experiments by overexpressing wild-type or mutant human DJ-1 in ‘knockout’ ES cells were performed. Plasmids encoding human wild-type DJ-1, PD-associated L166P mutant DJ-1, or vector alone, were transiently transfected into DJ-1 deficient clones, and these were subsequently assayed for sensitivity to H2O2 using the MTT viability assay.
as §2

“5′ UUCCAAACCGG AUGAGUGGdTdT 3′ (UUCCAAACCGGAUGAGUGGTT; siRNA; sugars from the 5' end r19 d2, backbone not given here) [parkin siRNA, parkin-specific short interfering RNA synthesized by Dharmacon]” was tested, and the “cleaved-PARP (apoptosis marker)” value [1] was “accumulation of cleaved poly (ADP-ribose) polymerase”, the “cyclin E accumulation” value [1] was “increased accumulation of cyclin E” and the parkin protein expression [1] was “significantly reduced parkin expression”. For the same molecule, the “dopamine neuron sensitivity to MPP+” value ([2]; MPP+ 10 μM) was “failed to alter dopamine neuron sensitivity”, the “cyclin E or DAT immunoreactivity” value ([2]; absence of kainate) was “failed to alter cyclin E or DAT immunoreactivity” and the “sensitization of DAT-negative neurons to kainate relative to DAT-positive population” value ([2]; cyclin E induction and apoptosis) was “significantly lesser extent”. The “apoptosis of dopamine neurons” value ([2]; kainate) was “increased apoptosis”, the “cyclin E accumulation in dopamine neurons” value ([2]; kainate) was “increased accumulation of cyclin E” and the DAT immunoreactivity ([2]; presence of kainate) was “decreased DAT immunoreactivity”.

With OO [H2O2] the “sensitivity of DJ-1 deficient cells to toxin relative to heterozygous cells” value ([3]; 15 h exposure, MTT) was “significantly greater toxicity”.

In the case of [Cl][Cu][Cl] [copper], the “sensitivity of DJ-1 deficient cells to toxin relative to heterozygous cells” value ([3]; 15 h exposure, MTT) is reported as “sensitized”.

With C[C@@H]1C[C@@H]([C@H](O)CC2CC(=O)NC(=O)C2)C(=O)[C@@H](C)C1 [cycloheximide] the “sensitivity of DJ-1 deficient cells to toxin relative to heterozygous cells” value ([3]; 15 h exposure, MTT) was “did not observe altered sensitivity”.

CC(=O)N[C@@H](CSC(=O)[C@]1([C@@H](O)C(C)C)NC(=O)[C@H](C)[C@@H]1O)C(=O)O [lactacystin] was tested, and the “sensitivity of DJ-1 deficient cells to toxin relative to heterozygous cells” value [3] was “sensitized”.

In the case of CN[C@@H]1C[C@H]2O[C@@](C)([C@@H]1OC)n1c3ccccc3c3c4c(c5c6ccccc6n2c5c31)C(=O)NC4 [staurosporine], the “sensitivity of DJ-1 deficient cells to toxin relative to heterozygous cells” value ([3]; 15 h exposure, MTT) is reported as “did not observe altered sensitivity”.

In the case of tunicamycin, the “sensitivity of DJ-1 deficient cells to toxin relative to heterozygous cells” value ([3]; 15 h exposure, MTT) is reported as “did not observe altered sensitivity”.

B1: C106A: DJ-1 cysteine-to-alanine mutant at cysteine 106 (protein, UniProt Q99497 1-189, looked up, variant C106A)
chain: MASKRALVILAKGAEEMETVIPVDVMRRAGIKVTVAGLAGKDPVQCSRDVVICPDASLEDAKKEGPYDVVVLPGGNLGAQNLSESAAVKEILKEQENRKGLIAAIAAGPTALLAHEIGFGSKVTTHPLAKDKMMNGGHYTYSENRVEKDGLILTSRGPGTSFEFALAIVEALNGKEVAAQVKAPLVLKD
In the case of B1, the “suppression of heat-induced aggregation of CS (chaperone activity)” value [4] is reported as “does not alter the basal activity” and the “viability of DJ-1 knockout cells in the presence of H2O2” value [5] is reported as “robustly rescued”.

B2: C106A/C53A/C46A: triple mutant that harbors mutations at all three cysteines in DJ-1 (protein, UniProt Q99497 1-189, looked up, variant C106A C53A C46A)
chain: MASKRALVILAKGAEEMETVIPVDVMRRAGIKVTVAGLAGKDPVQASRDVVIAPDASLEDAKKEGPYDVVVLPGGNLGAQNLSESAAVKEILKEQENRKGLIAAIAAGPTALLAHEIGFGSKVTTHPLAKDKMMNGGHYTYSENRVEKDGLILTSRGPGTSFEFALAIVEALNGKEVAAQVKAPLVLKD
B2 was tested, and the “suppression of heat-induced aggregation of CS (chaperone activity)” value [4] was “loss of chaperone function” and the “viability of DJ-1 knockout cells in the presence of H2O2” value [5] was “failed to protect”.
